According to patent US6713057B1, “Compositions and methods for modulating serum cholesterol” (The Johns Hopkins University, priority 1999, dated 2004):

How the values were obtained:
SREBP-1 [1] = experiment: SREBP-1 proteolysis (maturation) assay, Western immunoblot of nuclear fractions, HH-25 hepatocytes; type: cell-based, human; details: for induction of SREBP-1 maturation (increase in mature SREBP-1), in words: HH-25 hepatocytes, sterol independent
Description: FIGS. 2A-2C illustrate effects of TNF-α sphingomyelinase and C2-ceramide on the kinetics of SREBP-1 maturation—FIGS. 2A-2C is explained in more detail as follows: Cells were maintained in media supplemented with 1 μg/ml 25-hydroxy cholesterol and 15 μg/ml cholesterol for 24 hours before the experiment. The cells were treated for the indicated time as described in materials and methods. The cells were then harvested in PBS, pelleted and frozen. Lysis and nuclear fractionation were performed as described. Nuclear fractions (50 μg of protein) were electrophoresed on a 7.5% polyacrylamide gel and transferred to a PVDF membrane. Western blotting was performed as described. Band intensity was quantified via densitometry. Error bars represent ±one standard deviation from the mean. 2A) The kinetics of SREBP maturation as measured by the increase in mature SREBP-1 are plotted. Fold increase was calculated by comparing each time point to the corresponding control value (TNF-α is represented by stippled bars, bacterial sphingomyelinase is represented by light gray bars and C2-ceramide by the dark bars.) 2B) Cells were treated with TNF-α (10 ng/ml) and prepared as described above. The bands corresponding to the precursor and mature forms of SREBP-1 were quantified and their ratio plotted. 2C) Representative Western blots from which numerical data was derived. Incubation time is indicated above and applies to all conditions. The membranes were exposed to film for 15 seconds. P and M denote the precursor and mature forms of SREBP-1 respectively.
FIGS. 3A-3C show effects of TNF-α, sphingomyelinase and C2-ceramide concentration on SREBP-1 maturation—The FIGS. 3A-3C are explained in more detail as follows. […] Nuclear pellets were prepared and electrophoresed (50 μg of protein). The bands corresponding to the precursor and mature forms of SREBP-1 were quantified. The precursor to mature ratios were normalized to a single control to facilitate comparison. The control ratio was arbitrarily assigned a value of 1. A Unit of sphingomyelinase activity hydrolyzes 1.0 μmol of sphingomyelin per minute at 37° C. FIG. 3A (ng/ml TNF-α); FIG. 3B (mUnits of sphingomyelinase); FIG. 3C (micromolar C2-ceramide).
HH-25 cells were grown in alpha-minimal essential media supplemented with 100 units/ml penicillin, 100 µg/ml streptomycin, […], 0.1 μM selenium, 5.5 μg/ml transferrin, 0.5 μg/ml linoleic acid and 10% fetal bovine serum (media A). The cells were incubated in serum free F10 media for 30 to 60 minutes prior to initiating treatment with TNF-α, C2-ceramide or sphingomyelinase.
Following treatment, the cells were washed with 5 ml of PBS and pelleted at 1500×g for 10 minutes at 4° C. The pellet was stored at −70° C. and lysed in 0.5 ml buffer A (10 mM HEPES pH 7.4, 5 mM EDTA, 0.25 mM EGTA, 50 mM NaF, 7 mM β-mercaptoethanol, 0.35M sucrose, 0.1% NP-40 and protease inhibitors 1 mM PMSF, 2 μg/ml aprotinin, 10 μg/ml leupeptin and 5 μg/ml pepstatin). The lysate was centrifuged at 12,000×g for 15 minutes at 4° C. to prepare a nuclear fraction. The protein concentration of these samples was determined by the method of Lowry et al. al. (19).
50 μg of nuclear protein was separated by gel electrophoresis on a 7.5% polyacrylamide gel. Gels were calibrated by high range molecular weight markers (Bio-Rad product #161-0303, New York, N.Y.) which were transferred to a polyvinyl difluoride (PVDF) membrane and visualized with coomassie staining. Rabbit polyclonal antibodies against SREBP-1 were used at 0.5 μg/ml according to the instructions of the manufacturer. The antibody was visualized with horseradish peroxidase conjugated anti-rabbit IgG made in donkey (Amersham) using the Enhanced Chemiluminescence (ECL) Western Blotting Detection System Kit (Amersham). PVDF membranes were exposed to Hyperfilm ECL (Amersham) for the indicated time. Immunoblots were quantified via densitometry performed on a PDI densitometer scanner (model 20J7) coupled to a SPARC IRC workstation.

SREBP-1 [2] = experiment: Electrophoretic mobility shift assay, SREBP-1 binding to SRE probe; type: cell-based, human; details: TNF-α 10 ng/ml, sphingomyelinase 100 mUnits, C2-ceramide 10 μM
Description: FIGS. 6A-6D show electrophoretic mobility shift assays. FIGS. 6A-D are explained in more detail as follows. Cells were maintained in sterol supplemented media. Nuclear pellets were prepared and assayed as described in materials and methods. Probe that has been bound by mature SREBP-1 is indicated as “Bound”. Unbound probe is indicated as “Free”. The kinetics (in minutes) of SREBP-1 binding to the probe in response to treatment with (FIG. 6A). TNF-α (10 ng/ml), (FIG. 6B) sphingomyelinase (100 mUnits) and (FIG. 6C) C2-ceramide ([…]). (FIG. 6D). The cells were treated with either TNF-α (10 ng/ml), sphingomyelinase (100 mUnits) or C2-ceramide (10 μM) for 15 minutes. Supershift assays were then performed with antibodies raised against the DNA binding domain of SREBP-1. The presence or absence of antibody is indicated by (+) and (−) respectively. Pre-immune IgG was used as a control.
Gel mobility shift assays were performed as follows. Each 20 μl reaction mixture contained 8-10 μg of nuclear protein plus a α-[^32P]-labeled 25-base pair oligonucleotide probe containing the SREBP-binding site (14) in binding buffer (10 mM Hepes, pH 7.5, 0.5 mM spermidine, 0.15 mM EDTA, 10 mM dithiothreitol, 0.35 mM sucrose). The reaction mixture was incubated at room temperature for 15 min and loaded directly onto a 6.5% polyacrylamide (49:0.6 acrylamide/bisacrylamide) gel in a buffer of 25 mM Tris borate (pH 8.0), 0.25 mM EDTA. In some experiments, antisera specific for SREBP or preimmune sera were added to reaction mixtures to determine the composition of protein-probe complexes. For these “supershift” assays, extracts were incubated with 1 μl of preimmune sera or an equal volume of anti-SREBP antisera at 4° C. for 30 min prior to addition of α-[^32P]-labeled probe. In all experiments, proteins were separated by electrophoresis at 200 V for 2 h at room temperature. Gels were dried and exposed to Kodak XAR film with intensifying screens. Assays were repeated with nuclear extracts obtained from three unique experiments and evaluated by phosphoimage analysis to ensure reproducibility of results.

SREBP-1 [3] = experiment: Indirect immunofluorescence of SREBP-1 subcellular localization; type: cell-based, human; details: 30 minutes after initiating treatment; TNF-α 10 ng/ml, sphingomyelinase 100 mUnits, C2-ceramide 10 μM
Description: FIGS. 5A-5D show indirect immunofluorescence of SREBP-1. FIGS. 5A-5D are discussed in more detail as follows. SREBP-1 was visualized with rabbit polyclonal antibodies directed towards the N-terminal DNA binding domain which is common to both the precursor and mature forms. Cells were maintained in media supplemented with 1 μg/ml 25-hydroxycholesterol and 15 μg/ml cholesterol for 24 hours before the experiment. Immunofluorescence was performed as described. All magnifications are 40× and all photographs were taken of samples that were fixed 30 minutes after initiating treatment. FIG. 5A) Control cells, FIG. 5B) Cells treated with TNF-α (10 ng/ml), FIG. 5C) Cells treated with sphingomyelinase (100 mUnits), FIG. 5D) Cells treated with C2-ceramide (10 μM).
Cultured HH-25 cells were grown on coverslips and treated as described. After treatment, the cells were washed 3×5 minutes with PBS containing 1 mM MgCl2 and 0.1 mM CaCl2 (solution A). The cells were fixed with 3% paraformaldehyde in solution A for 10 minutes and permeabilized with 0.5% Triton X-100 in solution A for 6 minutes at room temperature. The coverslips were then washed 3×5 minutes with solution A.
Primary antibody (anti-SREBP1) was used at a dilution of […] in PBS and applied for 1 hour with gentle shaking. The cells were washed as above and a FITC conjugated anti-rabbit IgG secondary antibody, was applied for ½ hour according to the instructions of the manufacturer. The coverslips were washed, mounted on microscope slides and were viewed and photographed at the indicated magnification on a Zeiss Axiovert 25 fluorescence microscope.

Description for HH-25 cells: Cells were treated with either TNF-α, sphingomyelinase or C2-ceramide for 1 hour at concentrations identical to those used in the SREBP-1 maturation studies. The cells were then washed twice with minimal essential medium and refed with media A for 6 hours. […] Genomic DNA was electrophoresed and stained with ethidium bromide.

Compound | induction of SREBP-1 maturation (increase in mature SREBP-1), in words (SREBP-1 [1]) | induction of apoptosis (160 bp DNA ladder) (HH-25 cells) | decrease in the precursor to mature ratio (SREBP-1 [1]; 250 milliunits of sphingomyelinase activity) [%] | increase in mass of the mature form of SREBP-1 (SREBP-1 [1]; after 15 minutes of treatment, sterol supplemented media) [fold] | persistence of the increase in mature SREBP-1 (SREBP-1 [1]; after 60 minutes) | amount of probe bound (electrophoretically retarded) by mature SREBP-1 (SREBP-1 [2]) | subcellular localization of SREBP-1 (staining pattern) (SREBP-1 [3])
CCCCCCCCCCCCCCC[C@@H](O)[C@H](CO)NC(C)=O [C2-dihydroceramide, reference compound] | could not be induced |  |  |  |  |  | 
PDGF | could not be recapitulated |  |  |  |  |  | 
Sphingomyelinase |  | did not induce apoptosis | 80 | 2.5 | persisted after 60 minutes | increases | intense nuclear staining and little extra-nuclear staining
